Data on four compounds can be found in patent US4062944A, “Mixture of antibiotics produced by new species of micromonospora” (Pfizer Inc., priority 1976, dated 1977).

Assay [1] has as its system M. tuber. H37Rv. The experiment in a line: Minimal inhibitory concentration, nutrient broth tube dilution, M. tuberculosis. Type of assay: cell-based. The settings on record: Mycobacterium tuberculosis. Here is the method: (§1) These tests were run by preparing tubes of nutrient broth with gradually increasing concentrations of the pure antibiotic and then seeding the broths with the particular organism specified. […] The tests were conducted under standardized conditions as described in Proc. Soc. Exp. Biol. & Med. 122, ll07 (1966). Tables II and III illustrate the in vivo activity of these new antibiotics in experimentally infected mice.

In assay [2] the test system is Streptococcus pyogenes. In words: Minimal inhibitory concentration, nutrient broth tube dilution, Streptococcus pyogenes. The format is cell-based. The procedure: as §1
In assay [3] the test system is Staphylococcus aureus. In words: Minimal inhibitory concentration, nutrient broth tube dilution, Staphylococcus aureus. Type of assay: cell-based. Here is the method: as §1
Assay [4] concerns S. aureus (multi-resistant). In words: Minimal inhibitory concentration, nutrient broth tube dilution, S. aureus (multi-resistant). The settings on record: Staphylococcus aureus. Type of assay: cell-based. The procedure:
as §1

Assay [5] relates to Diplococci. The experiment in a line: In vivo activity in experimentally infected mice, Diplococci (PD50). Conditions: Mus musculus, oral, read-out: PD50 (dose that provides 50% protection). Here is the method: as §1
(§2) *Dose that provides 50% protection?

Assay [6] concerns Streptococci. In words: In vivo activity in experimentally infected mice, Streptococci (PD50). The settings on record: Mus musculus, oral, read-out: PD50 (dose that provides 50% protection). The procedure: as §1, §2
Assay [7] deals with Staphylococci. The experiment in a line: In vivo activity in experimentally infected mice, Staphylococci (PD50). Conditions: Mus musculus, read-out: PD50 (dose that provides 50% protection). Here is the method: as §1, §2
Assay [8] relates to M. tuberculosis. In words: M. tuberculosis infection in mice, survival. The format is in vivo. Conditions: evaluated at 53 days post challenge; for Percent Survival: control 20; for Average Survival Time: control 37.7. Here is the method:
as §1
M. tuberculosis Infection in Mice
*Evaluated at 53 days post challenge

A short description of assay [9]: Antibiotic properties of hexahydro derivatives compared with parent compounds. The settings on record: compared with the parent compound.

Values after ≈ are worked out from the molar mass of the structure shown. Read-outs that look alike come from different tables or passages of the source.

The MIC is the least concentration at which growth counts as inhibited. Low values mean a more susceptible organism, high ones a less susceptible organism. Consider `COC1C=COC2(C)Oc3c(C)c(O)c4c(O)c(c(SC)c(O)c4c3C2=O)NC(=O)C(C)=CC=CC(C)C(O)C(C)C(O)C(C)C(OC(C)=O)C1C` (stereo not shown) [3-methylthiorifamycin SV], for which the MIC in assay [1] was 15 ng/mL (≈ 20.2 nM); in assay [2] it was 1.9 ng/mL (≈ 2.55 nM); in assay [3], 1.9 ng/mL (≈ 2.55 nM); in assay [4], 1.9 to 3.9 ng/mL (≈ 2.55 to 5.24 nM). For the same compound, the ED50 stood at 8 mg/kg in assay [5]; 0.22 mg/kg in assay [6]; 1.1 mg/kg in assay [7] (oral); 0.65 mg/kg in assay [7] (sc, subcutaneous). The “Percent Survival” value in [8] (daily dose 0.5 mg) turned out to be 70%; in assay [8] (daily dose 5.0 mg), 100%. The “Average Survival Time” value in assay [8] (daily dose 0.5 mg) is recorded as 44.3 days; in assay [8] (daily dose 5.0 mg), 53.0 days.
For `COC1C=COC2(C)Oc3c(C)c(O)c4c(c3C2=O)C(=O)C(SC)=C(NC(=O)C(C)=CC=CC(C)C(O)C(C)C(O)C(C)C(OC(C)=O)C1C)C4=O` (stereo not shown) [3-methylthiorifamycin S], the MIC in assay [1] was 6 ng/mL (≈ 8.09 nM); in assay [2] it was 0.9 ng/mL (≈ 1.21 nM); in assay [3], 0.4 ng/mL (≈ 0.539 nM); in assay [4], 1.2 to 3.9 ng/mL (≈ 1.62 to 5.26 nM). In addition, the ED50 in assay [5] is > 12.5 mg/kg; in assay [6], 0.6 mg/kg; in [7] (oral) it was 1.4 mg/kg; in assay [7] (sc, subcutaneous) it was 0.17 mg/kg.
Consider “hexahydro derivative of 3-methylthiorifamycin SV”, for which the “antibiotic properties / antibiotic activity” value in assay [9] is reported as “comparable to those of the parent compounds”.
Regarding hexahydro-3-methylthiorifamycin S, in assay [9], the “antibiotic properties / antibiotic activity” value is listed as “comparable to those of the parent compounds”.
